We go through eight compounds from patent publication US20220117867A1, “ANTIMICROBIAL ACTIVITY OF FATTY ACID ESTERS AND COMBINATIONS THEREOF” (SYMRISE AG, priority 2019, published 2022).

Assay type in all cases: cell-based
For one experiment, the system named is Epidermophyton floccosum. Description: Minimum Inhibitory Concentration (MIC) Method B, DIN 58940; Synergy Index according to Kull. The note with it: single substance. On the procedure:
(§1) B) Minimum Inhibitory Concentration (MIC) Method B
(§2) 5 ml of the appropriate dilution of the test product is mixed with 0.1 ml of test suspension and mixed well. After the required action times, the mixture was mixed again. Each 0.1 ml were removed and placed in 5 ml of CSL-bouillon without neutralizing agents.
(§3) In order to calculate the synergy index with MIC values, the Kull equation (I) was used as follows:
(§4) SI=(MICmixture×PA)/MICA+(MICmixture×PB)/MICB (I)
SI is the Synergy Index according to Kull
MICA is the MIC value for Substance A
MICB is the MIC value for Substance B
MICmixture is the MIC value for the mixture of substances A and B
PA is the proportion of the substance A in the mixture
PB is the proportion of the substance B in the mixture

For another experiment, the system named is Staphylococcus aureus. Description: Minimum Inhibitory Concentration (MIC) Method A. As for the experimental part: (§5) A) Minimum Inhibitory Concentration (MIC) Method A
(§6) The MIC test is a test on growth inhibition. Estimation of Minimum Inhibitory Concentration (MIC) is executed in 96 well plates. Through the comparison of bacterial growth curves with positive and negative controls via optical density (OD), different concentrations of given test substances are evaluated.
(§7) Bacteria are cultivated under adjusted conditions based on information of the German Collection of Microorganisms and Cell Cultures (DSMZ) and stored in 50% Glycerol prior to use. Afterwards, the following method was applied:
(§8) Adding growth medium (according to microorganism) to each well of the microplate.
(§9) Adding the test-substances in different concentrations, positive controls (water controls only with medium) and negative controls (benchmarks according to organism).
(§10) Adding the microorganism in a concentration of 10^6 CFU/ml (CFU=colony forming units). Incubation of the microplates at appropriate conditions.
(§11) Aerobic microorganism: optical density is continuously measured (microplate reader) during incubation.
(§12) According to resulting growth curves, substance concentrations are labelled either as inhibiting or normal growth and MIC is defined as the lowest concentration where a clear inhibition is visible. Experiments at concentration limits (highest concentration labelled as growth and lowest concentration labelled as inhibiting) are performed at least twice.

For experiment [1], the system named is Aspergillus brasiliensis. Description: Minimum Inhibitory Concentration (MIC) Method A. On the procedure:
as §5, §6, §7, §8, §9, §10, §11, §12

Experiment [2] deals with Staphylococcus epidermidis. Description: Minimum Inhibitory Concentration (MIC) Method A. On the procedure: as §5, §6, §7, §8, §9, §10, §11, §12
Experiment [3] deals with Corynebacterium xerosis. Kind of experiment: Minimum Inhibitory Concentration (MIC) Method A. On the procedure: A) Minimum Inhibitory Concentration (MIC) Method A The MIC test is a test on growth inhibition. Estimation of Minimum Inhibitory Concentration (MIC) is executed in 96 well plates. Through the comparison of bacterial growth curves with positive and negative controls via optical density (OD), different concentrations of given test substances are evaluated. Bacteria are cultivated under adjusted conditions based on information of the German Collection of Microorganisms and Cell Cultures (DSMZ) and stored in 50% Glycerol prior to use. Afterwards, the following method was applied: Adding growth medium (according to microorganism) to each well of the microplate. Adding the test-substances in different concentrations, positive controls (water controls only with medium) and negative controls (benchmarks according to organism). Adding the microorganism in a concentration of 10^6 CFU/ml (CFU=colony forming units). Incubation of the microplates at appropriate conditions. Aerobic microorganism: optical density is continuously measured (microplate reader) during incubation. Anaerobic microorganism: incubation in an anaerobic chamber, measurement of the optical density at the end of the incubation, comparison of the results with positive and negative controls. According to resulting growth curves, substance concentrations are labelled either as inhibiting or normal growth and MIC is defined as the lowest concentration where a clear inhibition is visible. Experiments at concentration limits (highest concentration labelled as growth and lowest concentration labelled as inhibiting) are performed at least twice.

In experiment [4] the test system is Corynebacterium xerosis. Description: Minimum Inhibitory Concentration (MIC) Method B, DIN 58940; Synergy Index according to Kull. The note with it: Method B (Examples 3, 5, 6), C. xerosis, single substance. As for the experimental part: as §1, §2, §3, §4
Experiment [5] deals with Escherichia coli. Kind of experiment: Minimum Inhibitory Concentration (MIC) Method A. On the procedure:
as §5, §6, §7, §8, §9, §10, §11, §12

The test system of experiment [6] is Aspergillus brasiliensis. Description: Minimum Inhibitory Concentration (MIC) Method B, DIN 58940; Synergy Index according to Kull. The note with it: Method B (Example 5), A. brasiliensis, single substance. As for the experimental part:
as §1
(§13) Test conditions: Evaluation of bactericidal and fungicidal activity in qualitative suspension test (VAH-standard methods, 04-2015). 5 ml of the appropriate dilution of the test product is mixed with 0.1 ml of test suspension and mixed well. After the required action times, the mixture was mixed again. Each 0.1 ml were removed and placed in 5 ml of CSL-bouillon without neutralizing agents.
as §3, §4
(§14) The synergistic activity of 3-hydroxypropyl caprylate and glyceryl caprylate on several bacterial and fungal reference strains for application in either Deodorant application or as preservative was determined by measuring minimum inhibitory concentrations (MIC values) according to DIN 58940 and method B (method section above).

The subject of the next experiment is Staphylococcus hominis. Described as above. As to conditions: Method B (Example 5), S. hominis, single substance. As for the experimental part:
as §1, §13, §3, §4, §14

In experiment [7] the test system is Escherichia coli. The experiment is described as above. As to conditions: Method B (Example 5), E. coli, single substance. On the procedure:
as §1, §13, §3, §4, §14

Each structure is given as a SMILES string. ≈ marks a conversion by molar mass, not a printed value. Where two headings read alike, the source gives them in different places.

With `CCCCC(O)CO` (stereo not shown) [1,2 Hexanediol], the MIC with Epidermophyton floccosum is 10000 µg/mL.
With `C=CCCCCCCCCC(=O)OCCCO` [3-hydroxypropyl undecylenate], the MIC in the experiment with Staphylococcus aureus (read-out: MIC) stood at 500 µg/mL (≈ 2060 µM); in the experiment on Aspergillus brasiliensis [1] (read-out: MIC) it was 500 µg/mL (≈ 2060 µM); in experiment [2] (read-out: MIC) it was 64 µg/mL (≈ 264 µM); with Corynebacterium xerosis [3] (read-out: MIC) it was 250 µg/mL (≈ 1030 µM).
`CCCCCCC(O)CO` (stereo not shown) [Caprylyl Glycol, 1,2-Octanediol]: the MIC with Epidermophyton floccosum is 5000 µg/mL; with Corynebacterium xerosis [4] it was 2500 µg/mL.
Take `CC(C)(O)CCc1ccccc1` [Dimethyl Phenylbutanol, reference compound]: the MIC in the experiment with Staphylococcus aureus is recorded as 1000 ppm; against Aspergillus brasiliensis [1], 2500 ppm; in [2] it was 1000 ppm; against Escherichia coli [5] it was 2500 ppm.
Consider `CC(C)=CCCC(C)=CCCC(C)=CCO` [Farnesol], for which, in the experiment with Corynebacterium xerosis [4], the MIC was 16 µg/mL.
As for `CCCC(O)CO` (stereo not shown) [Pentylene Glycol, 1,2-Pentanediol], the MIC with Epidermophyton floccosum amounted to 15000 µg/mL.
In the case of `CCCCCCCC(=O)OCC(O)CO` (stereo not shown) [glyceryl caprylate, reference compound], the MIC in the experiment with Aspergillus brasiliensis [6] was determined as 2500 µg/mL; in the experiment on Staphylococcus hominis it was 1000 µg/mL; in the experiment with Escherichia coli [7], 2500 µg/mL; with Corynebacterium xerosis [4], 1000 µg/mL.
Consider `C=CCCCCCCCCC(=O)OCC(O)CO` (stereo not shown) [glyceryl monoundecylenate], for which the results for the MIC entry against Corynebacterium xerosis [3] and in the experiment with Corynebacterium xerosis [3] (read-out: MIC) were “low” and 250 µg/mL (≈ 968 µM), respectively.
